Experimental data from patent publication US6916808B2, “2-thio-4h-3, 1-benzoxazin-4-one derivatives for use as enzyme inhibitors” (Alizyme Therapeutics Limited, priority 2000, dated 2005).

Molecular target: T1, porcine pancreatic lipase (Sus scrofa, UniProt P00591)
T1 sequence (P00591 1-450): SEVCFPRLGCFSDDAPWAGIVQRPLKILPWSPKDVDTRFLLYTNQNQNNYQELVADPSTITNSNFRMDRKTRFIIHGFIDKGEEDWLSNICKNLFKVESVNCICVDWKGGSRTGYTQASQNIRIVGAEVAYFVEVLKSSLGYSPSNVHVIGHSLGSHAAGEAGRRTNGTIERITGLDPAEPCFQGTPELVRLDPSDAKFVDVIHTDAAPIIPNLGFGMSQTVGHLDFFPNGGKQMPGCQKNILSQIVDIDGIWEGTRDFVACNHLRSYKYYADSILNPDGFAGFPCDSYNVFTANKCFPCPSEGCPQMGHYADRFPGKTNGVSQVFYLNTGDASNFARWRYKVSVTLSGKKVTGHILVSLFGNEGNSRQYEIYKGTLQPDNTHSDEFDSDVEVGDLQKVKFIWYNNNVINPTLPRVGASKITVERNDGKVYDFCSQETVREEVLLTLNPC
Test: Lipase enzyme activity, NaOH titration method (lipid micelles)
Format: biochemical
Details: NaOH titration assay; system containing lipid micelles
Description: Measurement of Lipase Enzyme Activity Using a NaOH Titration Method
The inhibitory activity of the selected compounds to pancreatic lipase was measured in the assay described in Pasquier et al; 1996, Vol 7, Nutritional Biochemistry, 293-302.
Log dose/response curves were constructed using a range of inhibitor concentrations.
Selected benzoxazinone compounds were tested in the NaOH titration assay. In this assay, the activity of porcine pancreatic lipase in a system containing lipid micelles is recorded. These conditions are therefore similar to those encountered in the gastrointestinal tract.

IC50 [µM] | SMILES
< 1 | Cc1ccc2nc(Sc3ccccc3)oc(=O)c2c1 [Compound 4, 6-Methyl-2-phenylthio-4H-3,1-benzoxazin-4-one]
< 1 | Cc1ccc2nc(SCCCCCCCCCCc3ccccc3)oc(=O)c2c1 [Compound 5, 6-Methyl-2-(10-phenyldecyl)-thio-4H-3,1-benzoxazin-4-one]
